Assay results taken from ChEMBL document CHEMBL1667762, “Synthesis, antidepressant and antifungal evaluation of novel 2-chloro-8-methylquinoline amine derivatives” (Eur J Med Chem, 2011).
Values after ≈ are worked out from the molar mass of the structure shown. Active and inactive are the calls of the source. The rule behind the calls is not given here.

Assays:
[1] = system: Rattus norvegicus; assay: Neurotoxicity in rat assessed as impair in motor coordination at 100 mg/kg, ip after 30 mins by rotarod test (reference value: 116.50 +/- 1.18 sec); format: toxicity, organism-based; design: dose 100 mg/kg, route intraperitoneal; conditions: in vivo, 0.5 h
[2] = system: Aspergillus niger; assay: Antifungal activity against Aspergillus niger MTCC 281 after 72 hrs; format: functional
[3] = system: Rattus norvegicus; assay: Antidepressant activity in Albino rat assessed as immobility time at 100 mg/kg, ip by forced swimming test (reference value: 112.4 +/- 2.88 sec); format: functional; conditions: route intraperitoneal
[4] = system: Penicillium citrinum; assay: Antifungal activity against Penicillium citrinum NCIM 768 after 72 hrs; format: functional
[5] = Antifungal activity against Monascus purpureus MTCC 369 after 72 hrs; format: functional
[6] = system: Aspergillus flavus; assay: Antifungal activity against Aspergillus flavus MTCC 277 after 72 hrs; format: functional; conditions: for MIC: Aspergillus flavus, MTCC 277, 72 h
[7] = organism: Rattus norvegicus; assay: Inhibition of MAO in rat brain homogenate at 0.0005 M using kynuramine as substrate by fluorimetry; format: tissue-based
[8] = organism: Rattus norvegicus; assay: Neurotoxicity in rat assessed as impair in motor coordination at after 30 mins by rotarod test (reference value: 116.50 +/- 1.18 sec); format: toxicity, organism-based; conditions: in vivo, 0.5 h
[9] = system: Rattus norvegicus; assay: Antidepressant activity in Albino rat assessed as immobility time at 20 mg/kg, ip by forced swimming test (reference value: 112.4 +/- 2.88 sec); format: functional; conditions: route intraperitoneal
[10] = organism: Rattus norvegicus; conditions: Brain, 5 uM
Description: Inhibition of MAO in rat brain homogenate at 5 uM using kynuramine as substrate by fluorimetry

[11] = Penicillium citrinum, NCIM 768, 72 h
[12] = Aspergillus niger, MTCC 281, 72 h

SMILES | Time [1] | MIC [2] | inhibition zone (IZ) [2] | Time [3] | inhibition zone (IZ) [4] | MIC [4, 11] | MIC [5] | inhibition zone (IZ) [5] | inhibition zone (IZ) [6] | MIC [6] | MIC [2, 12] | MIC [4] | inhibition [7] | Time [8] | Time [9] | inhibition [10]
CCCCNCc1cc2cccc(C)c2nc1Cl | 92.34 s | inactive | inactive | 97.2 s | 5 mm | 200 µg/mL (≈ 761 µM) | inactive | inactive | 5 mm | 200 µg/mL (≈ 761 µM) |  |  |  |  |  | 
Cc1ccccc1NCc1cc2cccc(C)c2nc1Cl |  |  | 6.5 mm |  | inactive |  | inactive | inactive | 7 mm | 100 µg/mL (≈ 337 µM) | 100 µg/mL (≈ 337 µM) | inactive |  |  |  | 
Cc1cccc2cc(CNc3ccc(Br)cc3)c(Cl)nc12 |  |  | 5.5 mm |  | 6.5 mm | 100 µg/mL (≈ 276 µM) | 100 µg/mL (≈ 276 µM) | 7 mm | 6 mm | 25 µg/mL (≈ 69.1 µM) | 25 µg/mL (≈ 69.1 µM) |  |  |  |  | 
Cc1cccc2cc(CNc3ccccc3Cl)c(Cl)nc12 |  |  | 5.5 mm |  | 6 mm | 100 µg/mL (≈ 315 µM) | 100 µg/mL (≈ 315 µM) | 6.5 mm | 6 mm | 50 µg/mL (≈ 158 µM) | 50 µg/mL (≈ 158 µM) |  |  |  |  | 
Cc1cccc2cc(CNc3ccc(F)cc3)c(Cl)nc12 | 91.33 s |  | 6 mm | 80.4 s | 7 mm | 50 µg/mL (≈ 166 µM) | 50 µg/mL (≈ 166 µM) | 8 mm | 6 mm | 12.5 µg/mL (≈ 41.6 µM) | 12.5 µg/mL (≈ 41.6 µM) |  | 19.6% |  |  | 
Cc1cccc(NCc2cc3cccc(C)c3nc2Cl)c1 |  |  | 6 mm |  | inactive |  | inactive | inactive | 5.5 mm | 100 µg/mL (≈ 337 µM) | 100 µg/mL (≈ 337 µM) | inactive |  |  |  | 
Cc1cccc2cc(CNc3ccccc3)c(Cl)nc12 | 100.33 s |  | 6 mm | 103.2 s | 6 mm | 100 µg/mL (≈ 354 µM) | 100 µg/mL (≈ 354 µM) | 7 mm | 6.5 mm | 25 µg/mL (≈ 88.4 µM) | 25 µg/mL (≈ 88.4 µM) |  |  |  |  | 
OC(Cn1cncn1)(Cn1cncn1)c1ccc(F)cc1F [FLUCONAZOLE] |  |  | 13.5 mm |  | 12 mm | 6.25 µg/mL (≈ 20.4 µM) | 6.25 µg/mL (≈ 20.4 µM) | 11 mm | 14.5 mm | 6.25 µg/mL (≈ 20.4 µM) | 6.25 µg/mL (≈ 20.4 µM) |  |  |  |  | 
Cc1cccc2cc(CNc3ccc([N+](=O)[O-])cc3)c(Cl)nc12 | 93.5 s |  | 7 mm | 86.8 s | inactive |  | inactive | inactive | 6.5 mm | 100 µg/mL (≈ 305 µM) | 100 µg/mL (≈ 305 µM) | inactive |  |  |  | 
Cc1cccc2cc(CNc3ccc(Cl)cc3)c(Cl)nc12 | 95.17 s |  | 7.5 mm | 77.2 s | 6 mm | 50 µg/mL (≈ 158 µM) | 50 µg/mL (≈ 158 µM) | 7 mm | 6.5 mm | 12.5 µg/mL (≈ 39.4 µM) | 12.5 µg/mL (≈ 39.4 µM) |  | 23.5% |  |  | 
Cc1cccc2cc(CNC3CCCCC3)c(Cl)nc12 | 97.17 s |  | 5.5 mm | 76.6 s | 5.5 mm | 200 µg/mL (≈ 692 µM) | inactive | inactive | 5.5 mm | 200 µg/mL (≈ 692 µM) | 200 µg/mL (≈ 692 µM) |  | 20.6% |  |  | 
CNCCC(Oc1ccc(C(F)(F)F)cc1)c1ccccc1 (stereo unspecified) [FLUOXETINE] |  |  | 10.5 mm |  | 8 mm | 6.25 µg/mL (≈ 20.2 µM) | 6.25 µg/mL (≈ 20.2 µM) | 9 mm |  | 6.25 µg/mL (≈ 20.2 µM) | 6.25 µg/mL (≈ 20.2 µM) |  |  | 107.2 s | 55.4 s | 
Cc1ccc(NCc2cc3cccc(C)c3nc2Cl)cc1 | 96.5 s |  | 6 mm | 96.6 s | 6 mm | 100 µg/mL (≈ 337 µM) | 100 µg/mL (≈ 337 µM) | 7.5 mm | 7 mm | 50 µg/mL (≈ 168 µM) | 50 µg/mL (≈ 168 µM) |  |  |  |  | 
COc1ccc(NCc2cc3cccc(C)c3nc2Cl)cc1 |  |  | 6.5 mm |  | 6.5 mm | 100 µg/mL (≈ 320 µM) | 100 µg/mL (≈ 320 µM) | 5.5 mm | 6.5 mm | 50 µg/mL (≈ 160 µM) | 50 µg/mL (≈ 160 µM) |  |  |  |  | 
CN(C)CCCN1c2ccccc2CCc2ccc(Cl)cc21 [CLOMIPRAMINE] |  |  |  |  |  |  |  |  |  |  |  |  |  | 110.83 s | 63.4 s | 
Cc1cccc2cc(CNc3ccc(F)c(Cl)c3)c(Cl)nc12 | 93.67 s |  | 8.5 mm | 74.2 s | 6 mm | 25 µg/mL (≈ 74.6 µM) | 25 µg/mL (≈ 74.6 µM) | 5.5 mm | 8.5 mm | 12.5 µg/mL (≈ 37.3 µM) | 12.5 µg/mL (≈ 37.3 µM) |  | 32.1% |  |  | 
Cc1cccc2cc(CNc3ccc(Cl)c(Cl)c3)c(Cl)nc12 | 90.83 s |  | 8 mm | 73.6 s | 6.5 mm | 25 µg/mL (≈ 71.1 µM) | 50 µg/mL (≈ 142 µM) | 8 mm | 9 mm | 12.5 µg/mL (≈ 35.5 µM) | 12.5 µg/mL (≈ 35.5 µM) |  | 35% |  |  | 
Cc1cccc2cc(CNc3cccc(Cl)c3)c(Cl)nc12 | 97.83 s |  | 5.5 mm | 76.2 s | 5.5 mm | 25 µg/mL (≈ 78.8 µM) | 50 µg/mL (≈ 158 µM) | 6.5 mm | 6 mm | 12.5 µg/mL (≈ 39.4 µM) | 12.5 µg/mL (≈ 39.4 µM) |  | 26.8% |  |  | 
Cc1cccc2cc(CNCc3ccccc3)c(Cl)nc12 | 98.33 s |  | 5.5 mm | 78.4 s | 6.5 mm | 100 µg/mL (≈ 337 µM) | 100 µg/mL (≈ 337 µM) | 7 mm | 6 mm | 12.5 µg/mL (≈ 42.1 µM) | 12.5 µg/mL (≈ 42.1 µM) |  |  |  |  | 
N[C@@H]1C[C@H]1c1ccccc1.N[C@H]1C[C@@H]1c1ccccc1 |  |  |  |  |  |  |  |  |  |  |  |  |  |  |  | 91.6%
